In patent US20250320184A1 (SIRONAX LTD., priority 2022, published 2025) one finds IC50 data, which are given here for 31 compounds.

pIC50: −log10 of the molar value.

This test addresses T1, SARM1 (50-724) (Homo sapiens, UniProt Q6SZW1).
T1 sequence (Q6SZW1 50-724): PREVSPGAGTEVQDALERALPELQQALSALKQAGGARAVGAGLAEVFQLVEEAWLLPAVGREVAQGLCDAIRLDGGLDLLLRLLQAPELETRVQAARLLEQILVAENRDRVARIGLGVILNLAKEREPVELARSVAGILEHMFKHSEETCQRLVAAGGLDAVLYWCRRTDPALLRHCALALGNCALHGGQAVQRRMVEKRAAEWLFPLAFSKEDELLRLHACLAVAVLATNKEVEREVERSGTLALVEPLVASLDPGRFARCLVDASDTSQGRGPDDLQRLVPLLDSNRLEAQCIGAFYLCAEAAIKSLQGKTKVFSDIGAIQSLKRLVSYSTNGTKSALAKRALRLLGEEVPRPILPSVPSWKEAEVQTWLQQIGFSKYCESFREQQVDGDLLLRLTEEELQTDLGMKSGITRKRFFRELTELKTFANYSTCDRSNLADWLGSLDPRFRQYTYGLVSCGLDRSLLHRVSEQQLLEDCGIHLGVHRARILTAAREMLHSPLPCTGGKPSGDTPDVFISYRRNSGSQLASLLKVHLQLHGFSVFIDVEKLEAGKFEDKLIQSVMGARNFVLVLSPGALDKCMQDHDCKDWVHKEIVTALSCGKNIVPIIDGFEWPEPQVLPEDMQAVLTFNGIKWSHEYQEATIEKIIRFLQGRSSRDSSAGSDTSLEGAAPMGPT
Briefly: biochemical.

Description: An enzymatic assay was performed in a 384-well plate using Dulbecco's phosphate-buffered saline (PBS) as the reaction buffer. […] The reaction was initiated by adding a mixture of 200 μM nicotinamide mononucleotide (NMN) as activator and 100 μM NAD^+ as substrate. After 1 h of incubation at room temperature, the reaction was terminated with 10 times volume of 70% acetonitrile, then centrifuged at 3800 rpm for 10 min.

In general, pIC50 refers to the IC50 on a negative log10 scale, so that one unit is a factor of ten. A low value points to a large IC50. Consider `Cc1nc(C(C)Nc2ccc3cc[nH]c(=O)c3c2)sc1C` (racemic) [Example 213, 7-((1-(4,5-dimethylthiazol-2-yl)ethyl)amino)isoquinolin-1(2H)-one], for which the pIC50 is above 7.00.

On to `Cc1nc(C(C)Nc2ccc3c(C)n(CC(N)=O)nc3c2)sc1Cl` (single isomer, unassigned) [Compound 363], for which the pIC50 was below 6.00.

In turn, `O=c1[nH]ccc2ccc(NS(=O)(=O)c3c(Cl)ccc(Cl)c3Cl)cc12` [Compound 68, 2,3,6-trichloro-N-(1-oxo-1,2-dihydroisoquinolin-7-yl)benzenesulfonamide] showed a pIC50 above 7.00.

The compound `NC(=O)Cn1ccc2ccc(NS(=O)(=O)c3cccc(Cl)c3Cl)cc2c1=O` [Compound 306, 2-(7-((2,3-dichlorophenyl)sulfonamido)-1-oxoisoquinolin-2(1H)-yl)acetamide] showed a pIC50 above 7.00.

For `CC(Nc1ccc2nc[nH]c(=O)c2n1)c1c(Cl)ccc(F)c1Cl` (single isomer, unassigned) [Compound 382], the pIC50 is above 7.00.

The compound `Cc1c[nH]c(=O)c2cc(NS(=O)(=O)c3cccc(Cl)c3Cl)ccc12` [Compound 188, 2,3-dichloro-N-(4-methyl-1-oxo-1,2-dihydroisoquinolin-7-yl)benzenesulfonamide] gave a pIC50 above 7.00.

The compound `CC(Nc1ccc2c(c1)NC(=O)CC2)c1nc(Cl)c(Cl)s1` (racemic) [Compound 230, 7-[1-(4,5-dichlorothiazol-2-yl)ethylamino]-3,4-dihydro-1H-quinolin-2-one] gave a pIC50 of 6.30 to 7.00.

In turn, `CC(Nc1ccc2cc[nH]c(=O)c2c1)c1cc(Cl)cnc1Cl` (racemic) [Example 122, 7-((1-(2,5-dichloropyridin-3-yl)ethyl)amino)isoquinolin-1(2H)-one] showed a pIC50 of 6.00 to 6.30.

`CC(Nc1ccc2c(c1)C(=O)NCC2)c1cc(F)cc(Cl)c1` (racemic) [Example 101, 7-((1-(3-chloro-5-fluorophenyl)ethyl)amino)-3,4-dihydroisoquinolin-1(2H)-one] had a pIC50 of 6.30 to 7.00.

`CC(Nc1ccc2cc[nH]c(=O)c2c1)c1ccccc1F` (racemic) [Example 115, 7-((1-(2-fluorophenyl)ethyl)amino)isoquinolin-1(2H)-one] had a pIC50 below 6.00.

For the compound `Cc1n[nH]c(=O)c2cc(NC(CCO)c3nc(Cl)c(Cl)s3)ccc12` (racemic) [Example 294], the pIC50 is above 7.00.

`O=C1NCCc2ccc(NS(=O)(=O)c3ccc(F)cc3F)cc21` [Example 14A, 2,4-difluoro-N-(1-oxo-1,2,3,4-tetrahydroisoquinolin-7-yl)benzenesulfonamide] had a pIC50 below 6.00.

Consider `CC(Nc1ccc2ccccc2c1)c1cccc(Cl)c1Cl` (stereo not shown) [Example 13A, N-(1-(2,3-dichlorophenyl)ethyl)naphthalen-2-amine], for which the pIC50 was below 6.00.

Turning to `CC1(C)C(=O)N(CCC(N)=O)c2cc(NS(=O)(=O)c3cccc(Cl)c3Cl)ccc21` [Compound 279, 3-(6-((2,3-dichlorophenyl)sulfonamido)-3,3-dimethyl-2-oxoindolin-1-yl)propanamide], the pIC50 was above 7.00.

Compound `CC(Nc1cc(F)c2nc[nH]c(=O)c2c1)c1nc(Cl)c(Cl)s1` (racemic) [Compound 271, 6-((1-(4,5-dichlorothiazol-2-yl)ethyl)amino)-8-fluoroquinazolin-4(3H)-one] gave a pIC50 above 7.00.

With `O=C1Nc2cc(NS(=O)(=O)c3cccc(Cl)c3Cl)ccc2C12CCCC2` [Compound 212, 2,3-dichloro-N-(2′-oxospiro[cyclopentane-1,3′-indolin]-6′-yl)benzenesulfonamide], the pIC50 is above 7.00.

For `CC(Nc1ccc2c(c1)N(C(=O)CC(N)=O)CC2(C)C)c1sc(Cl)nc1Cl` (racemic) [Compound 317, 3-(6-((1-(2,4-dichlorothiazol-5-yl)ethyl)amino)-3,3-dimethylindolin-1-yl)-3-oxopropanamide], the pIC50 is above 7.00.

As to `CC1(C)CN(C(=O)C2CC2)c2cc(NS(=O)(=O)c3cccc(Cl)c3Cl)ccc21` [Compound 243, 2,3-dichloro-N-(1-(cyclopropanecarbonyl)-3,3-dimethylindolin-6-yl)benzenesulfonamide], the pIC50 is above 7.00.

As to `[2H]C(C)(Nc1ccc2c(C)n(CC(N)=O)nc2c1)c1nc(Cl)c(Cl)s1` (single isomer, unassigned) [Compound 377], the pIC50 was above 7.00.

With `Cc1cc(F)cc(S(=O)(=O)Nc2ccc3c(c2)C(=O)NCC3)c1` [Example 15A, 3-fluoro-5-methyl-N-(1-oxo-1,2,3,4-tetrahydroisoquinolin-7-yl)benzenesulfonamide], the pIC50 was below 6.00.

As to `N#Cc1c[nH]c(=O)c2cc(NS(=O)(=O)c3cccc(Cl)c3Cl)ccc12` [Compound 63, 2,3-dichloro-N-(4-cyano-1-oxo-1,2-dihydroisoquinolin-7-yl)benzenesulfonamide], the negative logarithm of the IC50 (pIC50) was 6.30 to 7.00.

In turn, `CC1(C)Cc2ccc(NS(=O)(=O)c3cccc(Cl)c3Cl)cc2NC1=O` [Compound 268, 2,3-dichloro-N-(3,3-dimethyl-2-oxo-1,4-dihydroquinolin-7-yl)benzenesulfonamide] gave a pIC50 of 6.30 to 7.00.

As to `CC(Nc1ccc2cc[nH]c(=O)c2c1)c1c(Cl)ccc(Cl)c1Cl` (racemic) [Compound 185, 7-((1-(2,3,6-trichlorophenyl)ethyl)amino)isoquinolin-1(2H)-one], the pIC50 was above 7.00.

`Cc1n[nH]c(=O)c2cc(NC(C)c3nn(C)c(Cl)c3Cl)cc(F)c12` (racemic) [Compound 316, 7-((1-(4,5-dichloro-1-methyl-1H-pyrazol-3-yl)ethyl)amino)-5-fluoro-4-methylphthalazin-1(2H)-one] showed a negative logarithm of the IC50 (pIC50) above 7.00.

As to `CC(Nc1ccc2c(C(F)F)n(CC(N)=O)nc2c1)c1nc(Cl)c(Cl)s1` (single isomer, unassigned) [Compound 355B], the pIC50 was below 6.00.

The compound `CC(Nc1ccc2ccn(C)c(=O)c2c1)c1c(Cl)cccc1Cl` (racemic) [Example 151, 7-((1-(2,6-dichlorophenyl)ethyl)amino)-2-methylisoquinolin-1(2H)-one] showed a pIC50 of 6.30 to 7.00.

Turning to `CC(Nc1ccc2c(c1)C(=O)NCC2)c1cnc(Cl)c(Cl)c1` (racemic) [Example 119, 7-((1-(5,6-dichloropyridin-3-yl)ethyl)amino)-3,4-dihydroisoquinolin-1(2H)-one], the pIC50 is 6.00 to 6.30.

The compound `CC(Nc1ccc2nc[nH]c(=O)c2n1)c1c(F)ccc(Cl)c1Cl` (single isomer, unassigned) [Compound 387] had a negative logarithm of the IC50 (pIC50) above 7.00.

As for `Cc1nn(CC(N)=O)c(=O)c2nc(NC(C)c3nn(C)c(Cl)c3Cl)ccc12` (racemic) [Compound 330, 2-(2-((1-(4,5-dichloro-1-methyl-1H-pyrazol-3-yl)ethyl)amino)-5-methyl-8-oxopyrido[2,3-d]pyridazin-7(8H)-yl)acetamide], the pIC50 was above 7.00.

`Cc1c2ccc(NC(C)c3nc(Cl)c(Cl)s3)cc2nn1CCO` (racemic) [Compound 307, 2-(6-((1-(4,5-dichlorothiazol-2-yl)ethyl)amino)-3-methyl-2H-indazol-2-yl)ethan-1-ol] showed a pIC50 above 7.00.

On to `CC(Nc1cc(F)c2ncn(-c3ncnn3C)c(=O)c2c1)c1nc(Cl)c(Cl)s1` (racemic) [Example 373, 6-((1-(4,5-dichlorothiazol-2-yl)ethyl)amino)-8-fluoro-3-(1-methyl-1H-1,2,4-triazol-5-yl)quinazolin-4(3H)-one], for which the pIC50 was above 7.00.
